Assay results published in patent publication US9352013B2, “Uses of bremelanotide in therapy for female sexual dysfunction” (Palatin Technologies, Inc., priority 2012, dated 2016).
Entries after “also recorded” stand apart in the source; their conditions may differ. Like-named read-outs stand apart in the source and are kept apart here.

Legend:
[1] = tested on: premenopausal and postmenopausal women with FSAD; test: Phase 2 intranasal trials in women with FSAD: efficacy and adverse events; type: in vivo, human
Protocol: (§1) In the bremelanotide premenopausal arm, 42.5% of the subjects were discontinued due to hypertension, nausea, vomiting or myalgia. Subjects received a 10 mg intranasal dose of bremelanotide, with premenopausal subjects determined to have a mean plasma concentration of 88.5±51.9 ng/mL and a % CV of 58.6, and postmenopausal subjects determined to have a mean plasma concentration of 93.2±68.5 ng/mL and a % CV of 73.5. The minimum and maximum plasma concentration levels for all women at thirty minutes post dose range from 0.0 ng/mL to 207.0 ng/mL.
Results with premenopausal women in a placebo-controlled, randomized, double-blind, parallel group, at-home exploratory study to evaluate the efficacy and safety of intranasally administered bremelanotide in subjects with female sexual arousal disorder (FSAD) were compared against results in the study of Example 1. In the intranasal study, a total of 76 premenopausal subjects were randomized, with 40 subjects to receive bremelanotide and 36 to receive placebo. Twenty-two subjects treated with bremelanotide and 29 treated with placebo completed the study, with 16 subjects who received bremelanotide (40%) discontinuing from the study due to an adverse event. This compares to the study of Example 1, in which as shown by Table 6 only 8% of subjects on the 1.75 mg subcutaneous dose discontinuing due to an adverse event.

[2] = Example 1: adverse events and discontinuations; type: in vivo, human; settings: for Adverse event leading to withdrawal: Flushing, subjects (%) / Adverse event leading to withdrawal: Hypertension, subjects (%) / Adverse event leading to withdrawal: Nausea, subjects (%) / Adverse event leading to withdrawal: Vomiting, subjects (%) / Adverse event: Any leading to withdrawal, subjects (%) / Adverse event: Any, subjects (%) / Adverse event: Flushing, subjects (%) / Adverse event: Headache, subjects (%) / Adverse event: Injection-site pain, subjects (%) / Adverse event: Injection-site pruritus, subjects (%) / Adverse event: Nausea, subjects (%) / Adverse event: Upper respiratory tract infection, subjects (%): double-blind treatment
Protocol: A multi-centered, placebo-controlled, randomized, parallel group trial with fixed dose levels and designed to identify appropriate doses of bremelanotide administered by subcutaneous injection in premenopausal females with FSAD and/or HSDD, under the conditions of home use, was conducted. Subjects received a single dose of placebo (subject-blinded) in-clinic followed by 4 weeks of subject-blinded placebo treatment at home (subjects self-administered treatment as needed). Subjects who continued to qualify for the trial then received 2 single in-clinic doses of randomized treatment (double-blind; approximately one week apart), followed by 12 weeks of double-blind treatment at home (subjects self-administered treatment as needed).
Bremelanotide was well-tolerated during the trial. The most common types of treatment-emergent adverse events reported more frequently in the bremelanotide arms were facial flushing, nausea, emesis and headache. The study dosed 395 patients. A total of 26 patients discontinued from the study based on preset blood pressure change criterion spread across all arms (N=26, Placebo: 6, bremelanotide arms—0.75 mg: 4, 1.25 mg: 9, 1.75 mg: 7). A total of 19 patients discontinued from the study based on adverse events spread across all arms (N=19, Placebo: 5, bremelanotide arms—0.75 mg: 2, 1.25 mg: 4, 1.75 mg: 8). The adverse events that most commonly lead to discontinuation (other than meeting the blood pressure criterion) were flushing, nausea and emesis. Based on a safety review by an independent Data Safety Monitoring Board, no significant safety issues or concerns were identified during the study. […] Adverse events during the double-blind treatment period are shown on Table 6 below.

[3] = tested on: men diagnosed with erectile dysfunction; settings: subcutaneous injection of either a 4 or 6 mg dose; cited from earlier work
[4] = Adverse events with single-dose SC administration (Trials-14, -06, -10); type: in vivo, human
Protocol: Subcutaneous dosing was tested in 5 Phase 1 trials (3 in females, 2 in males) and one Phase 2 trial (males). The most common adverse events associated with single-dose SC bremelanotide administration (Trials-14, -06, and -10) were somnolence (30%), flushing (15%), nausea (19%), and vomiting (10%).

[5] = tested on: healthy adult female subjects; test: Phase 1 dose escalation, subcutaneous: vaginal photoplethysmography (vaginal pulse amplitude); type: in vivo, human
Protocol: In a double-blind, placebo-controlled, single dose, dose escalation Phase 1 study to determine the maximum tolerated dose in healthy adult female subjects, doses of from 0.3 to 5.0 mg (0.3, 1.0, 3.0 and 5.0 mg) of bremelanotide were administered by subcutaneous injection. However, this study specifically excluded women with a diagnosis of FSD, and thus could not determine an effective dose for treatment of FSD. The study did employ a measure of pharmacodynamic effect, defined as an increase of sexual arousal response in the presence of visual sexual stimulation as measured by vaginal blood flow with vaginal photoplethysmography (using a Geer gauge device), which measures vaginal pulse amplitude.

[6] = Pharmacokinetics of subcutaneous administration in healthy adult males; type: in vivo; settings: male, human, plasma, sc, read-out: Median Tmax
Description: Results of Tmax values were compared between subcutaneous administration (SC) and intranasal (IN) administration of various doses of bremelanotide, as shown in FIG. 1.

[7] = Phase 2 intranasal trials: plasma concentration after 10 mg intranasal dose; type: in vivo; settings: female, human, inhaled or intranasal, premenopausal, 30 minutes post dosing
Protocol: as §1
In the intranasal study, premenopausal women self-administered a 10 mg intranasal dose.

Q: With CCCC[C@H](NC(C)=O)C(=O)N[C@H]1CC(=O)NCCCC[C@@H](C(=O)O)NC(=O)[C@H](Cc2c[nH]c3ccccc23)NC(=O)[C@H](CCCNC(=N)N)NC(=O)[C@@H](Cc2ccccc2)NC(=O)[C@H](Cc2c[nH]cn2)NC1=O [bremelanotide, Ac-Nle-cyclo(-Asp-His-D-Phe-Arg-Trp-Lys)-OH] as the compound, how does the “Subjects reporting at least one adverse event” value ([1]; 10 mg intranasal, postmenopausal, placebo 47.7%) read?
A: Its value is 100%.

Q: And the “Subjects discontinuing from the study due to an adverse event” value ([1]; 10 mg intranasal, premenopausal, 16 of 40 subjects)?
A: Its value is 40%.

Q: What about the “Sexual desire and arousal compared to placebo” value ([1]; intranasal, premenopausal and postmenopausal women with FSAD) of the same compound?
A: The value was “increase sexual desire and arousal compared to placebo”.

Q: And the “Patients discontinued based on adverse events” value (“Patients discontinued based” below) ([2]; 0.75 mg SC)?
A: Its value is 2.

Q: And the “Patients discontinued on preset blood pressure change criterion” value ([2]; 0.75 mg SC)?
A: Its value is 4.

Q: And the “Adverse event leading to withdrawal: Flushing, subjects (%)” value ([2]; 0.75 mg SC (N = 100))?
A: The value was 0.

Q: And the “Adverse event leading to withdrawal: Hypertension, subjects (%)” value ([2]; 0.75 mg SC (N = 100))?
A: The value was 2 (2%).

Q: What about the “Adverse event leading to withdrawal: Nausea, subjects (%)” value ([2]; 0.75 mg SC (N = 100)) of the same compound?
A: The value was 0.

Q: And the “Adverse event leading to withdrawal: Vomiting, subjects (%)” value ([2]; 0.75 mg SC (N = 100))?
A: Its value is 0.

Q: And the “Adverse event: Any leading to withdrawal, subjects (%)” value (shortened to “Adverse event: Any leading … (%)”) ([2]; 0.75 mg SC (N = 100))?
A: The value was 2 (2%).

Q: And the “Adverse event: Any, subjects (%)” value ([2]; 0.75 mg SC (N = 100))?
A: The value was 64 (64%).

Q: And the “Adverse event: Flushing, subjects (%)” value ([2]; 0.75 mg SC (N = 100))?
A: Its value is 17 (17%).

Q: And the “Adverse event: Headache, subjects (%)” value ([2]; 0.75 mg SC (N = 100))?
A: Its value is 9 (9%).

Q: And the “Adverse event: Injection-site pain, subjects (%)” value ([2]; 0.75 mg SC (N = 100))?
A: The value was 6 (6%).

Q: And the “Adverse event: Injection-site pruritus, subjects (%)” value ([2]; 0.75 mg SC (N = 100))?
A: The value was 4 (4%).

Q: And the “Adverse event: Nausea, subjects (%)” value ([2]; 0.75 mg SC (N = 100))?
A: Its value is 18 (18%).

Q: What about the “Adverse event: Upper respiratory tract infection, subjects (%)” value ([2]; 0.75 mg SC (N = 100)) of the same compound?
A: The value was 8 (8%).

Q: What about the “Patients discontinued based” value ([2]; 1.25 mg SC) of the same compound?
A: The value was 4.

Q: What about the “Patients discontinued on preset blood pressure change criterion” value ([2]; 1.25 mg SC) of the same compound?
A: The value was 9.

Q: And the “Adverse event leading to withdrawal: Flushing, subjects (%)” value ([2]; 1.25 mg SC (N = 99))?
A: Its value is 1 (1%).

Q: What about the “Adverse event leading to withdrawal: Hypertension, subjects (%)” value ([2]; 1.25 mg SC (N = 99)) of the same compound?
A: Its value is 0.

Q: And the “Adverse event leading to withdrawal: Nausea, subjects (%)” value ([2]; 1.25 mg SC (N = 99))?
A: Its value is 0.

Q: And the “Adverse event leading to withdrawal: Vomiting, subjects (%)” value ([2]; 1.25 mg SC (N = 99))?
A: The value was 1 (1%).

Q: What about the “Adverse event: Any leading … (%)” value ([2]; 1.25 mg SC (N = 99)) of the same compound?
A: The value was 4 (4%).

Q: What about the “Adverse event: Any, subjects (%)” value ([2]; 1.25 mg SC (N = 99)) of the same compound?
A: The value was 61 (62%).

Q: And the “Adverse event: Flushing, subjects (%)” value ([2]; 1.25 mg SC (N = 99))?
A: Its value is 14 (14%).

Q: And the “Adverse event: Headache, subjects (%)” value ([2]; 1.25 mg SC (N = 99))?
A: Its value is 9 (9%).

Q: What about the “Adverse event: Injection-site pain, subjects (%)” value ([2]; 1.25 mg SC (N = 99)) of the same compound?
A: The value was 6 (6%).

Q: And the “Adverse event: Injection-site pruritus, subjects (%)” value ([2]; 1.25 mg SC (N = 99))?
A: The value was 4 (4%).

Q: And the “Adverse event: Nausea, subjects (%)” value ([2]; 1.25 mg SC (N = 99))?
A: Its value is 22 (22%).

Q: And the “Adverse event: Upper respiratory tract infection, subjects (%)” value ([2]; 1.25 mg SC (N = 99))?
A: Its value is 5 (5%).

Q: And the “Patients discontinued based” value ([2]; 1.75 mg SC)?
A: The value was 8.

Q: And the “Patients discontinued on preset blood pressure change criterion” value ([2]; 1.75 mg SC)?
A: The value was 7.

Q: And the “Adverse event leading to withdrawal: Flushing, subjects (%)” value ([2]; 1.75 mg SC (N = 98))?
A: Its value is 1 (1%).

Q: And the “Adverse event leading to withdrawal: Hypertension, subjects (%)” value ([2]; 1.75 mg SC (N = 98))?
A: The value was 1 (1%).

Q: And the “Adverse event leading to withdrawal: Nausea, subjects (%)” value ([2]; 1.75 mg SC (N = 98))?
A: The value was 3 (3%).

Q: And the “Adverse event leading to withdrawal: Vomiting, subjects (%)” value ([2]; 1.75 mg SC (N = 98))?
A: The value was 3 (3%).

Q: What about the “Adverse event: Any leading … (%)” value ([2]; 1.75 mg SC (N = 98)) of the same compound?
A: The value was 8 (8%).

Q: What about the “Adverse event: Any, subjects (%)” value ([2]; 1.75 mg SC (N = 98)) of the same compound?
A: The value was 67 (68%).

Q: And the “Adverse event: Flushing, subjects (%)” value ([2]; 1.75 mg SC (N = 98))?
A: The value was 17 (17%).

Q: What about the “Adverse event: Headache, subjects (%)” value ([2]; 1.75 mg SC (N = 98)) of the same compound?
A: The value was 14 (14%).

Q: And the “Adverse event: Injection-site pain, subjects (%)” value ([2]; 1.75 mg SC (N = 98))?
A: Its value is 7 (7%).

Q: What about the “Adverse event: Injection-site pruritus, subjects (%)” value ([2]; 1.75 mg SC (N = 98)) of the same compound?
A: Its value is 6 (6%).

Q: What about the “Adverse event: Nausea, subjects (%)” value ([2]; 1.75 mg SC (N = 98)) of the same compound?
A: Its value is 24 (24%).

Q: And the “Adverse event: Upper respiratory tract infection, subjects (%)” value ([2]; 1.75 mg SC (N = 98))?
A: Its value is 4 (4%).

Q: What about the “Tolerability during the trial” value ([2]; 0.75-1.75 mg SC) of the same compound?
A: Its value is “generally well tolerated”.

Q: What about the “Serious adverse events related to treatment” value ([2]; Example 1 study) of the same compound?
A: The value was “none were considered related; also recorded: no serious adverse events”.

Q: And the “Erectile response compared to placebo” value [3]?
A: The value was “statistically significant erectile response”.

Q: What about the “Adverse event: flushing” value [4] of the same compound?
A: Its value is 15%.

Q: And the “Adverse event: nausea” value [4]?
A: Its value is 19%.

Q: What about the “Adverse event: somnolence” value [4] of the same compound?
A: Its value is 30%.

Q: And the “Adverse event: vomiting” value [4]?
A: The value was 10%.

Q: What about the “Pharmacodynamic effect (vaginal pulse amplitude with visual sexual stimulation)” value ([5]; 0.3 or 1.0 mg SC, compared to placebo or baseline) of the same compound?
A: The value was “no apparent pharmacodynamic effect”.

Q: And the “Pharmacodynamic effect (vaginal pulse amplitude with visual sexual stimulation)” value ([5]; 3 and 5 mg SC)?
A: Its value is “statistically significant pharmacodynamic effect”.

Q: What about the “Subcutaneous dose at which a pharmacodynamics effect was seen” value ([5]; normal female volunteers) of the same compound?
A: The value was no less than 3 mg.

Q: What about the Tmax [6] of the same compound?
A: The Tmax was 30 to 60 min.

Q: What about the Cmax at 30 min ([7]; read-out: Cmax / plasma concentration, mean) of the same compound?
A: The Cmax at 30 min was 88.5 ± 51.9 ng/mL.

Q: And the Cmax at 30 min ([7]; read-out: Cmax, maximum)?
A: The Cmax at 30 min was 207 ng/mL.

Q: And the Cmax at 30 min ([7]; read-out: Cmax, median)?
A: The Cmax at 30 min was 81.1 ng/mL.
